Holding throughout (details): Compound concentration 10 µM
Assay [1] deals with Beta-2 adrenergic receptor (Homo sapiens) (UniProt P07550).
For assay [2], the target named is T1, D(4) dopamine receptor (Homo sapiens) (UniProt P21917).
T1 sequence (whole entry): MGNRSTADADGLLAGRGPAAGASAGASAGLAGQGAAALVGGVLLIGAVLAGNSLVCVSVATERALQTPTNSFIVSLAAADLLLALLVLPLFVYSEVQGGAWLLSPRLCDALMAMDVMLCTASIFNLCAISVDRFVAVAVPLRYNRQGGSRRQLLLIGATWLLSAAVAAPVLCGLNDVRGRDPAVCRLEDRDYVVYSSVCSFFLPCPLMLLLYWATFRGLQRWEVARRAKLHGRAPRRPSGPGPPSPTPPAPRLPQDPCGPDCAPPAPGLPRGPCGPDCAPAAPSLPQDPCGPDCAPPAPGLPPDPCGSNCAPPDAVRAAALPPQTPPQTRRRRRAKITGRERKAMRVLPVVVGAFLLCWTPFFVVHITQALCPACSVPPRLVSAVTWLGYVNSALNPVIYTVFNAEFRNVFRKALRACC

Assay [3] has as its target T2, Alpha-1D adrenergic receptor (Homo sapiens) (UniProt P25100).
T2 sequence (whole entry): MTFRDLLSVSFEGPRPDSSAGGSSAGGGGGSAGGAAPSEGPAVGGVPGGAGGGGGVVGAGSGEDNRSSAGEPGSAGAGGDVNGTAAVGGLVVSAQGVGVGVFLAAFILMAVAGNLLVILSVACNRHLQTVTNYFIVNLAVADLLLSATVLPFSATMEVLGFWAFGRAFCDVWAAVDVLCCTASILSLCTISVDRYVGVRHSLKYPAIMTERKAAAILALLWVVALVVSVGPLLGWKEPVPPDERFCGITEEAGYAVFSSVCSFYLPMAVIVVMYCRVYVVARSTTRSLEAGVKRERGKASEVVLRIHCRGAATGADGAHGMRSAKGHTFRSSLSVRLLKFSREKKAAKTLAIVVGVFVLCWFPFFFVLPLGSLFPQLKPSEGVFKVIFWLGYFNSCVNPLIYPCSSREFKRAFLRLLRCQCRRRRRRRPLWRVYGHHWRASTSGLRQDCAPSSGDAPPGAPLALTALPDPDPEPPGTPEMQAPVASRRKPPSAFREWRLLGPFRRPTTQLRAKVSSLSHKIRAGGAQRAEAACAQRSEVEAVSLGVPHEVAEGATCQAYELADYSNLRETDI

The target in assay [4] is Histamine H1 receptor (Homo sapiens) (UniProt P35367).
The target of assay [5] is 5-hydroxytryptamine receptor 2B (Homo sapiens) (UniProt P41595).
The target of assay [6] is Sodium-dependent dopamine transporter (Homo sapiens) (UniProt Q01959).
Assay [7] deals with 5-hydroxytryptamine receptor 5A (Homo sapiens) (UniProt P47898).
Assay [8] has as its target T3, 5-hydroxytryptamine receptor 1A (Homo sapiens) (UniProt P08908).
T3 sequence (whole entry): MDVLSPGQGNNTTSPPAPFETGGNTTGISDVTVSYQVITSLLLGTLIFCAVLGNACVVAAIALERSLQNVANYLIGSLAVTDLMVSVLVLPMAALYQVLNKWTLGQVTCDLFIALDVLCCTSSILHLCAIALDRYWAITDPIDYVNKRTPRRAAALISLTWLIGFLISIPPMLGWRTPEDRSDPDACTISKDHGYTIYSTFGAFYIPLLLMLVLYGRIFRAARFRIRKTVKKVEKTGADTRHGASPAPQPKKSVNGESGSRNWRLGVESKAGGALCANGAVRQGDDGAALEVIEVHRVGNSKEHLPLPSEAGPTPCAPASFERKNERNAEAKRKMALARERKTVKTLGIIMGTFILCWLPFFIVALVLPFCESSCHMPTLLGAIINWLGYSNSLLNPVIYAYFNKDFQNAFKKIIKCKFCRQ

Assay [9] concerns the target T4, Alpha-2B adrenergic receptor (Homo sapiens) (UniProt P18089).
T4 sequence (whole entry): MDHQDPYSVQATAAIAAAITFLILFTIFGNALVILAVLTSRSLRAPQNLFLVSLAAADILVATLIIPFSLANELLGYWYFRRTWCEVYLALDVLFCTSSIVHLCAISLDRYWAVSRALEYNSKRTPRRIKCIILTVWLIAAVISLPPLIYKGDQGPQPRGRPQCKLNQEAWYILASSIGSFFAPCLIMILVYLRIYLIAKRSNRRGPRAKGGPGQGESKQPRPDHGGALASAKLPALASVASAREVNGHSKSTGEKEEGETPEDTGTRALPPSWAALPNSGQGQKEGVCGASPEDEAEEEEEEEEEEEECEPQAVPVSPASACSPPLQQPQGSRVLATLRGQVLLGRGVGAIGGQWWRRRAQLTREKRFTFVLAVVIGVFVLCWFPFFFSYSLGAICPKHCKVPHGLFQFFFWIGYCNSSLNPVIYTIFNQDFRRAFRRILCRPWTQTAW

The target of assay [10] is Sodium-dependent noradrenaline transporter (Homo sapiens) (UniProt P23975).
For assay [11], the target named is T5, Muscarinic acetylcholine receptor M4 (Homo sapiens) (UniProt P08173).
T5 sequence (whole entry): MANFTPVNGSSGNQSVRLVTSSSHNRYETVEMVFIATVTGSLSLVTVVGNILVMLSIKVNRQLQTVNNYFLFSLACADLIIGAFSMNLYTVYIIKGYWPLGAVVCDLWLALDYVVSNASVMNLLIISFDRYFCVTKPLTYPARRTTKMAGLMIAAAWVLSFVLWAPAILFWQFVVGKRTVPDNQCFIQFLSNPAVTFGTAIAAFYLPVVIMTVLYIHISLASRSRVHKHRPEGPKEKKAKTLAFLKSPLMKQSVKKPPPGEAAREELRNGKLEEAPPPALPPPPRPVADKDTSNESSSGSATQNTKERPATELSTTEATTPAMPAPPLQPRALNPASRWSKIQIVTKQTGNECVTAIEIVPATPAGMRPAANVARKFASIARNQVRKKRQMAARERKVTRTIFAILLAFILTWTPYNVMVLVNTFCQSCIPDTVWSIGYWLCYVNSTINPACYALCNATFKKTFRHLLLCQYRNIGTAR

Assay [12] addresses D(3) dopamine receptor (Homo sapiens) (UniProt P35462).
For assay [13], the target named is Histamine H4 receptor (Homo sapiens) (UniProt Q9H3N8).
Assay [14] deals with Muscarinic acetylcholine receptor M3 (Homo sapiens) (UniProt P20309).
Chain of Muscarinic acetylcholine receptor M3 (Homo sapiens) (P20309 whole entry, looked up): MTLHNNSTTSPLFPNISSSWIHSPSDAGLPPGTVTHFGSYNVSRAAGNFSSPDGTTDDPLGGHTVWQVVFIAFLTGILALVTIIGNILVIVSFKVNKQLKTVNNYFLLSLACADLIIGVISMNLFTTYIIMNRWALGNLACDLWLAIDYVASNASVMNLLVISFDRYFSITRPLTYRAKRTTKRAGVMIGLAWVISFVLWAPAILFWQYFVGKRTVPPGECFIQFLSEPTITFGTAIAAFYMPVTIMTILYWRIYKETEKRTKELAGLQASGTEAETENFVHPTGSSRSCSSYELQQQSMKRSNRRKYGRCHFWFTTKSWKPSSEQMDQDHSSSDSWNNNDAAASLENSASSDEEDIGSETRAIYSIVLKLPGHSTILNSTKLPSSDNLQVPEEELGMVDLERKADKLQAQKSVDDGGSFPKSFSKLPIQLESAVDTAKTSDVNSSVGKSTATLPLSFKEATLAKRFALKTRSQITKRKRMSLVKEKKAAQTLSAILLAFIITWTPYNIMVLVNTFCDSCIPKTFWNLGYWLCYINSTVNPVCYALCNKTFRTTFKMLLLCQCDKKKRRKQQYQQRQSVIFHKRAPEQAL

Chain of D(3) dopamine receptor (Homo sapiens) (P35462 whole entry): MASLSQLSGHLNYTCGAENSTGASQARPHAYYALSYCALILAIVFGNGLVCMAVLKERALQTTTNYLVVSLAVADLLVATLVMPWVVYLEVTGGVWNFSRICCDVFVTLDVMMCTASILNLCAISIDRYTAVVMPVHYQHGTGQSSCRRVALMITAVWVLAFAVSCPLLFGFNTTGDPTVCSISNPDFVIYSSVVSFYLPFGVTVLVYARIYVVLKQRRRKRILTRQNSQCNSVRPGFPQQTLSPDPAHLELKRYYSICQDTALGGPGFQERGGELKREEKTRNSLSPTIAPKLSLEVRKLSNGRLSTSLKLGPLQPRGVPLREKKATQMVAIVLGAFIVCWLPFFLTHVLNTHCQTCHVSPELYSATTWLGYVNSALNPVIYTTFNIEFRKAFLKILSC
Chain of 5-hydroxytryptamine receptor 2B (Homo sapiens) (P41595 whole entry): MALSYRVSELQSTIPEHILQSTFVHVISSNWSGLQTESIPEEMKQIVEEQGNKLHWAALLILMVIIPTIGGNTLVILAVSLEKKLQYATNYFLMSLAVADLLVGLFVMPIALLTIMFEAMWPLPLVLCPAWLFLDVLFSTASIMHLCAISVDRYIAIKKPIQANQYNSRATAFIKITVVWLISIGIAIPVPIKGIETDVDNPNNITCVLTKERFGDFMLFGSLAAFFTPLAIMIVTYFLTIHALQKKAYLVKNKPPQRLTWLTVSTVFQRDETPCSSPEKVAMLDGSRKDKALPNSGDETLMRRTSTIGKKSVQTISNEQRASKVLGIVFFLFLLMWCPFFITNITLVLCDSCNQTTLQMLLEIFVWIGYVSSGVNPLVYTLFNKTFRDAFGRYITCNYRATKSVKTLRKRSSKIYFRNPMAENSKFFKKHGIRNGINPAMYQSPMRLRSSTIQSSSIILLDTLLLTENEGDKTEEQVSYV
Chain of Sodium-dependent dopamine transporter (Homo sapiens) (Q01959 whole entry): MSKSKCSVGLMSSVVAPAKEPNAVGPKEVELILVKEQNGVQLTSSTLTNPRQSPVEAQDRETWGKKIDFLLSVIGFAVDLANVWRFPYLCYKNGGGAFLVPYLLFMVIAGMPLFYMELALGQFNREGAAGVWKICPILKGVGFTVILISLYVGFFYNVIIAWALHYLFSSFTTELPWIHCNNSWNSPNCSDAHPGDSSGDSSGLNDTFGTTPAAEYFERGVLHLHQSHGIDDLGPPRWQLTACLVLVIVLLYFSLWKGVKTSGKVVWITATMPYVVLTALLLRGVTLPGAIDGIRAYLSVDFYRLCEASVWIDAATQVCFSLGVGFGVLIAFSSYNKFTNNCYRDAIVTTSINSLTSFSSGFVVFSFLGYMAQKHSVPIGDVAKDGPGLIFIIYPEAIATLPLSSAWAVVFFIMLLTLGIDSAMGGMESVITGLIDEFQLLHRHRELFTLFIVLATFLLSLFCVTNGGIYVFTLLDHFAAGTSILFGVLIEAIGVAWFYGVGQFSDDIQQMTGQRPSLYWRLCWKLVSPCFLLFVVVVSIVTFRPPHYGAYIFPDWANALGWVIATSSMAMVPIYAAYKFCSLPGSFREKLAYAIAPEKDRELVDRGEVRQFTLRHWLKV
Chain of Histamine H1 receptor (Homo sapiens) (P35367 whole entry): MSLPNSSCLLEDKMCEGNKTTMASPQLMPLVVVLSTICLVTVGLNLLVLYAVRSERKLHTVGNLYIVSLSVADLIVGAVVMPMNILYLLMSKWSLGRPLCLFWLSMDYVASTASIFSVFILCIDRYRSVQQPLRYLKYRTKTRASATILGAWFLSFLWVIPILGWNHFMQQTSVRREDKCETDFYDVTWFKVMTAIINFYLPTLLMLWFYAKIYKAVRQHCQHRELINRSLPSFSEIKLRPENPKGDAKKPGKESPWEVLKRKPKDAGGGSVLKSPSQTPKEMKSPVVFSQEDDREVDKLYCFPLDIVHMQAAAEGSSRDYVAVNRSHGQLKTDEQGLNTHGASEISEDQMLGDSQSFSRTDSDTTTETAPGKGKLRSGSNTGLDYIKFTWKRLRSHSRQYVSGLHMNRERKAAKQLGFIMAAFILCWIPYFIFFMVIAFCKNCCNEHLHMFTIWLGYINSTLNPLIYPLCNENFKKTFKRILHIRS
Chain of Histamine H4 receptor (Homo sapiens) (Q9H3N8 whole entry): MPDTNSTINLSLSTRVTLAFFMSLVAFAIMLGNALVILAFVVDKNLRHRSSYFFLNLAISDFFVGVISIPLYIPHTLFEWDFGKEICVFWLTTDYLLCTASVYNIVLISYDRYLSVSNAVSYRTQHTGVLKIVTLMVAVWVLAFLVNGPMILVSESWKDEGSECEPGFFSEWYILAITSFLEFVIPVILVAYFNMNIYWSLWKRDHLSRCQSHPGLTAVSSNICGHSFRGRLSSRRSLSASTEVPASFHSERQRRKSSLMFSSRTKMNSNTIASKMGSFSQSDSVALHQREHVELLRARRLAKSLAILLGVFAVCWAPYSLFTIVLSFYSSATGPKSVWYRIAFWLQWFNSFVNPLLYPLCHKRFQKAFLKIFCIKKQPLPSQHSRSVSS
Chain of Sodium-dependent noradrenaline transporter (Homo sapiens) (P23975 whole entry): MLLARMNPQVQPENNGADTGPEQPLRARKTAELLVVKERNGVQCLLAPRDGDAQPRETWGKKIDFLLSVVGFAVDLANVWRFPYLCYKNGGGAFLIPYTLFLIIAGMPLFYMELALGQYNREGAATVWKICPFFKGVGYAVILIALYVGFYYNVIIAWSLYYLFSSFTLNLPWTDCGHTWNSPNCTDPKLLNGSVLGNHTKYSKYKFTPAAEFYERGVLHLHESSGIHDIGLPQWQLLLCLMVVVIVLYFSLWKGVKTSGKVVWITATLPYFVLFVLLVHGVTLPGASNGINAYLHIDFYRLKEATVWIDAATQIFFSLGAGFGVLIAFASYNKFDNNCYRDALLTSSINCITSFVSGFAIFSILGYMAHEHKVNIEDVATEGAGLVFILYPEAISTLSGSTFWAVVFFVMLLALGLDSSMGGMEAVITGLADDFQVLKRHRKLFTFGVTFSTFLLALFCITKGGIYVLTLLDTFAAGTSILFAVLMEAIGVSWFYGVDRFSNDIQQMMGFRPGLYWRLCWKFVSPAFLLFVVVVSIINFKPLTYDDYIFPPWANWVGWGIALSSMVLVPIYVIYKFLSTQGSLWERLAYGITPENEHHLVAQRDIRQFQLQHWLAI
Chain of Beta-2 adrenergic receptor (Homo sapiens) (P07550 whole entry, looked up): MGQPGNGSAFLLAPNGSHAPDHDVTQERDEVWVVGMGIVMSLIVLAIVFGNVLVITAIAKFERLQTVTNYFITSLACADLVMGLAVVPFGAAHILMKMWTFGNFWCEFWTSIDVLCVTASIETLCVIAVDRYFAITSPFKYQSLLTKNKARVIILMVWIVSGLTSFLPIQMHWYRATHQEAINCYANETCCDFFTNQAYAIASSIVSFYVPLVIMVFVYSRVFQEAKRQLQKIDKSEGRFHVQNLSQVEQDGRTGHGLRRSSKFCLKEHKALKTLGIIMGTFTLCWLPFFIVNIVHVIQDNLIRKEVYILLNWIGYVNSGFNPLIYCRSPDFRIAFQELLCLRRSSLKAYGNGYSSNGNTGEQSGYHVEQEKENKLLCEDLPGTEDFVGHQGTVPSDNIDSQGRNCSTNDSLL
Chain of 5-hydroxytryptamine receptor 5A (Homo sapiens) (P47898 whole entry): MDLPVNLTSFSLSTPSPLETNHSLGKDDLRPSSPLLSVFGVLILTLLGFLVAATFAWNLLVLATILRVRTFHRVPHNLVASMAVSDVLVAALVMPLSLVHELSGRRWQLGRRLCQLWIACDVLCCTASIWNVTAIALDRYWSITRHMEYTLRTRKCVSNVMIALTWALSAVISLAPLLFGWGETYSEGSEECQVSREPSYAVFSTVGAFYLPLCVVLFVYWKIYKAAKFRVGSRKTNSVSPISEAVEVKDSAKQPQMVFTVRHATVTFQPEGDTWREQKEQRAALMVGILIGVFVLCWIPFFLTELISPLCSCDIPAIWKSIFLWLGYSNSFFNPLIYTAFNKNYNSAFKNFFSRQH

For `N#Cc1c(N)nc(SCc2csc(-c3ccc(Cl)cc3)n2)c(C#N)c1-c1ccc(OCCO)cc1`, the inhibition is 17% in assay [1]; 38.4% in assay [2]; 6.13% in assay [3]; 14.2% in assay [4]; 62.1% in [5]; 64.1% in assay [6]. Moreover, the inhibition was -4.31% in [7]; -0.89% in assay [8]; 2.13% in assay [9]; 33.5% in assay [10]; -8.79% in assay [11]; 12.5% in assay [12]. Further, the inhibition in assay [13] was -8.37%.
With `CO[C@@H]1COCC[C@@H]1N[C@@H]1CC[C@@](C(=O)N2CCc3ncc(C(F)(F)F)cc3C2)(C(C)C)C1`, the inhibition in assay [14] is 6.08%; in assay [1], -6.91%; in [2], -3.53%; in [3], -8.81%; in [4], 25.1%; in assay [5], -6.19%. Besides, the inhibition in [6] is 14.2%; in [8] it was 19.6%; in [12], 33.7%; in assay [13], 2.39%.
`CN1CCC(=C2c3ccccc3CC(=O)c3sccc32)CC1`: the inhibition was 25.3% in assay [1]; 25.6% in [2]; 16.3% in assay [3]; 98.4% in assay [5]; 20.7% in assay [6]; 43.5% in assay [7]. Moreover, the inhibition is 6.57% in assay [8]; 45.1% in assay [10]; 64.6% in [11]; 80.2% in assay [12]; 26.2% in assay [13].
For the compound `O=C1O[C@]2(CC[C@H](C(=O)Nc3ccn(-c4ccccc4F)n3)CC2)c2cnccc21`, the inhibition in assay [14] is 2.94%; in assay [4], 7.78%; in [5], 17.5%; in assay [8], 19.7%; in assay [12] it was 73.2%.
With `CCC(=O)NCC[C@@H]1CCc2ccc3c(c21)CCO3`, the inhibition was 12.6% in assay [1]; -3.2% in [2]; 10.9% in assay [3]; -1.68% in assay [4]; 72% in assay [5]; -2.02% in [6]. For the same compound, the inhibition in assay [7] is 21.8%; in [8], -7.41%; in assay [9] it was 22%; in [10], 18%; in [11], -2.55%; in assay [12], 8.49%.
For `CN1C[C@H](C(=O)N[C@]2(C)O[C@@]3(O)[C@@H]4CCCN4C(=O)[C@H](Cc4ccccc4)N3C2=O)C[C@@H]2c3cccc4[nH]cc(c34)C[C@H]21`, the inhibition is 18.1% in assay [1]; 100% in assay [2]; 102% in [3]; 82.8% in assay [5]; 5.72% in assay [6]; 97.6% in [7]. In addition, the inhibition was 96.3% in assay [8]; 21.2% in [10]; -5.91% in assay [11]; 97.8% in assay [12]; 3.01% in assay [13].
In the case of `CC(C)NCC(O)COc1cccc2[nH]ccc12` (centres undefined), the inhibition in assay [1] was 100%; in assay [2], 69.4%; in assay [3] it was 13.6%; in [5] it was 39.4%; in assay [6] it was 21.3%; in assay [7], 52.6%. The inhibition was 94.1% in [8]; 27.1% in [10]; 4.2% in [11]; 65.4% in assay [12]; -8.33% in assay [13].
Regarding `COC(=O)[C@H]1[C@H]2C[C@H]3c4[nH]c5ccccc5c4CCN3C[C@H]2CC[C@@H]1O`, the inhibition was -6.47% in assay [1]; 40.2% in assay [2]; 58.7% in [3]; 94.3% in assay [5]; 6.37% in [6]; 48.2% in assay [7]. For the same compound, the inhibition in assay [8] is 1.62%; in assay [10], 43.4%; in [11], -4.59%; in assay [12], 31%; in assay [13], 8.74%.
For `CCc1nn2c(C)cc(C)nc2c1Cc1ccc(-c2nnc(C3CCNCC3)o2)cc1`, the inhibition in assay [1] was 12.5%; in [2] it was -4.88%; in assay [3], -0.67%; in assay [4], 9.84%; in [5], 9.86%; in assay [6], 4.13%. Besides, the inhibition in assay [7] is 3.02%; in assay [8], -1.59%; in assay [9], 27.4%; in assay [10], -8.38%; in assay [11], -6.61%; in [12], -9.36%. In addition, the inhibition in assay [13] was -1.79%.
On to `Clc1cccc(Cl)c1NC1=NCCN1`, for which the inhibition in [1] was -4.25%; in assay [2] it was -2.87%; in assay [3], 66.8%; in assay [5] it was 93.8%; in [6] it was 20.8%; in assay [7], 20.1%. Also, the inhibition was 8% in [8]; 20.9% in [10]; -8.53% in [11]; 19.4% in assay [12]; 2.9% in assay [13].
Turning to `COc1cc2nc(N3CCN(C(=O)c4ccco4)CC3)nc(N)c2cc1OC`, the inhibition in assay [1] is 1.53%; in assay [2] it was 27.4%; in [3], 0%; in [5], 54.3%; in assay [6], 29.4%; in assay [7], 83.4%. Besides, the inhibition in assay [8] was 8.03%; in [10] it was 26.5%; in assay [11] it was 2.17%; in assay [12] it was 37.6%; in [13], 1.83%.

As usually defined, the inhibition is the change of the read-out against control, counted positive when it falls.

Values taken from ChEMBL document CHEMBL5442219.
